Results: patent publication US20090299044A1 (priority 2006, published 2009)
Bridge positions count the residues as written; N and C are the ends. Square brackets hold non-standard residues; d marks the D form. Peptide text beside a SMILES is read from it. 1Nal = N[C@@H](Cc1cccc2ccccc12)C(=O)O

Key:
[1] = biological target: T1, human Kv1.3 (CHO) (Homo sapiens, UniProt P22001); experiment: cell-based
T1 construct: expressed in transfected cells; host or cells: CHO

[2] = biological target: T2, human Kv1.1 (HEK293) (Homo sapiens, UniProt Q09470); experiment: cell-based
T2 construct: expressed in transfected cells; host or cells: HEK293
T2 sequence (Q09470 whole entry): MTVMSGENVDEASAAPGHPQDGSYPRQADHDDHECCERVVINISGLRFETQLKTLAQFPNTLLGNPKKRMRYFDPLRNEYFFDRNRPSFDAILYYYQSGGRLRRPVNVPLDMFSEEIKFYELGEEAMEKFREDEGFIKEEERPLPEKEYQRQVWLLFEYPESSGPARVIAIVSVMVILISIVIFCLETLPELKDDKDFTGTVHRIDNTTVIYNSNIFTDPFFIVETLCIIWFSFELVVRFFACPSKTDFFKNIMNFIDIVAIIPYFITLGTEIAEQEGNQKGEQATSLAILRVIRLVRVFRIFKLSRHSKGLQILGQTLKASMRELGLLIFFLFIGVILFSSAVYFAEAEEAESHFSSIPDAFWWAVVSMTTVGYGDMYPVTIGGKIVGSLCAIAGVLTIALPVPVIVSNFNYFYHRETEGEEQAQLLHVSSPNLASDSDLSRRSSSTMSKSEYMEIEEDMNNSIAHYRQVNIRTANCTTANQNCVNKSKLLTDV

T1 sequence (P22001 whole entry): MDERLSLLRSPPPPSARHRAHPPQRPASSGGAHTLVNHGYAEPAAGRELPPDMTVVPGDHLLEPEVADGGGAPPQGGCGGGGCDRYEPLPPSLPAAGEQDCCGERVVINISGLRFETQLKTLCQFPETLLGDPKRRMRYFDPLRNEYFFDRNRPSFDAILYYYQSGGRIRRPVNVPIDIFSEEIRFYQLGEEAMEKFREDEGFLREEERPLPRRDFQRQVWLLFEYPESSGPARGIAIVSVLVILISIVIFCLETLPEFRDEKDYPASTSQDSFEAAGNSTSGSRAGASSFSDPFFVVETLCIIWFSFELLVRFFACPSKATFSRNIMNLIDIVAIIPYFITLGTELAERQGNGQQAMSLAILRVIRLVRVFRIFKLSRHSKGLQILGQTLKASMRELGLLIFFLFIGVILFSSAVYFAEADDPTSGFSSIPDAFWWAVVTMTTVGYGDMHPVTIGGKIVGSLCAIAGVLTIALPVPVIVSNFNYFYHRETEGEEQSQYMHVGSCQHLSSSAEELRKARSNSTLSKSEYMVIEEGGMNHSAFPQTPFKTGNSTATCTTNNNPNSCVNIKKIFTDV

CC[C@H](C)[C@@H]1NC(=O)[C@H](Cc2cccc3ccccc23)NC(=O)[C@@H](NC(=O)[C@H](CCCCN)NC(=O)[C@@H](NC(=O)[C@H](CC(N)=O)NC(=O)[C@@H](NC(=O)[C@@H](NC(=O)[C@@H](NC(=O)CN)C(C)C)[C@@H](C)CC)[C@@H](C)CC)C(C)C)CSSC[C@@H]2NC(=O)[C@H](CCCCN)NC(=O)CNC(=O)[C@H](Cc3ccccc3)NC(=O)[C@H](CCCNC(=N)N)NC(=O)[C@H](CCSC)NC(=O)CNC(=O)[C@H](C)NC(=O)[C@H](CCCCN)NC(=O)[C@H](CCCCN)NC(=O)[C@@H]3CSSC[C@@H](C(=O)N[C@H](C(=O)N4CCC[C@H]4C(=O)N[C@@H](CCCCN)C(=O)O)[C@@H](C)O)NC(=O)[C@H](Cc4c[nH]cn4)NC(=O)[C@H](CSSC[C@H](NC(=O)[C@H](CCC(N)=O)NC(=O)[C@H](CCCNC(=N)N)NC(=O)[C@H](CO)NC1=O)C(=O)N[C@@H](CC(C)C)C(=O)N[C@@H](CCC(=O)O)C(=O)N1CCC[C@H]1C(=O)N3)NC(=O)[C@H](CCCCN)NC(=O)CNC(=O)[C@H](CC(N)=O)NC(=O)[C@H](CCSC)NC2=O [K9Nal] (H-GVIINVKC[1Nal]ISRQCLEPCKKAGMRFGKCMNGKCHCTPK-OH; disulfide 8-28, 14-33, 18-35)
IC50 [1]: 65.8 pM
IC50 [2]: 2.92 pM

CC[C@H](C)[C@@H]1NC(=O)[C@H](CCCNC(=N)N)NC(=O)[C@@H](NC(=O)[C@H](CCCCN)NC(=O)[C@@H](NC(=O)[C@H](CC(N)=O)NC(=O)[C@@H](NC(=O)[C@@H](NC(=O)[C@@H](NC(=O)CN)C(C)C)[C@@H](C)CC)[C@@H](C)CC)C(C)C)CSSC[C@@H]2NC(=O)[C@H](CCCCN)NC(=O)CNC(=O)[C@H](Cc3ccccc3)NC(=O)[C@H](CCCNC(=N)N)NC(=O)[C@H](CCSC)NC(=O)CNC(=O)[C@H](C)NC(=O)[C@H](CCCCN)NC(=O)[C@H](CCCCN)NC(=O)[C@@H]3CSSC[C@@H](C(=O)N[C@H](C(=O)N4CCC[C@H]4C(=O)N[C@@H](CCCCN)C(=O)O)[C@@H](C)O)NC(=O)[C@H](Cc4c[nH]cn4)NC(=O)[C@H](CSSC[C@H](NC(=O)[C@H](CCC(N)=O)NC(=O)[C@H](CCCNC(=N)N)NC(=O)[C@H](CO)NC1=O)C(=O)N[C@@H](CC(C)C)C(=O)N[C@@H](CCC(=O)O)C(=O)N1CCC[C@H]1C(=O)N3)NC(=O)[C@H](CCCCN)NC(=O)CNC(=O)[C@H](CC(N)=O)NC(=O)[C@H](CCSC)NC2=O [K9R] (H-GVIINVKCRISRQCLEPCKKAGMRFGKCMNGKCHCTPK-OH; disulfide 8-28, 14-33, 18-35)
IC50 [1]: 12 pM
IC50 [2]: 2.01 pM

CC[C@H](C)[C@@H]1NC(=O)[C@H](CCCCN)NC(=O)[C@@H](NC(=O)[C@H](CCCCN)NC(=O)[C@@H](NC(=O)[C@H](CC(N)=O)NC(=O)[C@@H](NC(=O)[C@@H](NC(=O)[C@@H](NC(=O)CN)C(C)C)[C@@H](C)CC)[C@@H](C)CC)C(C)C)CSSC[C@@H]2NC(=O)[C@H](CCCCN)NC(=O)CNC(=O)[C@H](Cc3ccccc3)NC(=O)[C@H](CCCNC(=N)N)NC(=O)[C@H](CCSC)NC(=O)CNC(=O)[C@H](C)NC(=O)[C@H](CCCCN)NC(=O)[C@H](C)NC(=O)[C@@H]3CSSC[C@@H](C(=O)N[C@H](C(=O)N4CCC[C@H]4C(=O)N[C@@H](CCCCN)C(=O)O)[C@@H](C)O)NC(=O)[C@H](Cc4c[nH]cn4)NC(=O)[C@H](CSSC[C@H](NC(=O)[C@H](CCC(N)=O)NC(=O)[C@H](CCCNC(=N)N)NC(=O)[C@H](CO)NC1=O)C(=O)N[C@@H](CC(C)C)C(=O)N[C@@H](CCC(=O)O)C(=O)N1CCC[C@H]1C(=O)N3)NC(=O)[C@H](CCCCN)NC(=O)CNC(=O)[C@H](CC(N)=O)NC(=O)[C@H](CCSC)NC2=O [K19A] (H-GVIINVKCKISRQCLEPCAKAGMRFGKCMNGKCHCTPK-OH; disulfide 8-28, 14-33, 18-35)
IC50 [1]: 210 pM
IC50 [2]: 16.8 pM

CC[C@H](C)[C@@H]1NC(=O)[C@H](CCCCN)NC(=O)[C@@H](NC(=O)[C@H](CCCCN)NC(=O)[C@@H](NC(=O)[C@H](CC(N)=O)NC(=O)[C@@H](NC(=O)[C@@H](NC(=O)[C@@H](NC(=O)CN)C(C)C)[C@@H](C)CC)[C@@H](C)CC)C(C)C)CSSC[C@@H]2NC(=O)[C@H](CCCCN)NC(=O)CNC(=O)[C@H](Cc3ccccc3)NC(=O)[C@H](CCCNC(=N)N)NC(=O)[C@H](CCSC)NC(=O)CNC(=O)[C@H](C)NC(=O)[C@H](CCCCN)NC(=O)[C@H](CCC(=O)O)NC(=O)[C@@H]3CSSC[C@@H](C(=O)N[C@H](C(=O)N4CCC[C@H]4C(=O)N[C@@H](CCCCN)C(=O)O)[C@@H](C)O)NC(=O)[C@H](Cc4c[nH]cn4)NC(=O)[C@H](CSSC[C@H](NC(=O)[C@H](CCC(N)=O)NC(=O)[C@H](CCCNC(=N)N)NC(=O)[C@H](CO)NC1=O)C(=O)N[C@@H](CC(C)C)C(=O)N[C@@H](CCC(=O)O)C(=O)N1CCC[C@H]1C(=O)N3)NC(=O)[C@H](CCCCN)NC(=O)CNC(=O)[C@H](CC(N)=O)NC(=O)[C@H](CCSC)NC2=O [K19E] (H-GVIINVKCKISRQCLEPCEKAGMRFGKCMNGKCHCTPK-OH; disulfide 8-28, 14-33, 18-35)
IC50 [1]: 23.5 pM
IC50 [2]: 13.7 pM

CC[C@H](C)[C@@H]1NC(=O)[C@H](CCCCN)NC(=O)[C@@H](NC(=O)[C@H](CCCCN)NC(=O)[C@@H](NC(=O)[C@H](CC(N)=O)NC(=O)[C@@H](NC(=O)[C@@H](NC(=O)[C@@H](NC(=O)CN)C(C)C)[C@@H](C)CC)[C@@H](C)CC)C(C)C)CSSC[C@@H]2NC(=O)[C@H](CCCCN)NC(=O)CNC(=O)[C@H](Cc3ccccc3)NC(=O)[C@H](CCCNC(=N)N)NC(=O)[C@H](CCSC)NC(=O)CNC(=O)[C@H](C)NC(=O)[C@H](CCCCN)NC(=O)[C@H](CCCNC(=N)N)NC(=O)[C@@H]3CSSC[C@@H](C(=O)N[C@H](C(=O)N4CCC[C@H]4C(=O)N[C@@H](CCCCN)C(=O)O)[C@@H](C)O)NC(=O)[C@H](Cc4c[nH]cn4)NC(=O)[C@H](CSSC[C@H](NC(=O)[C@H](CCC(N)=O)NC(=O)[C@H](CCCNC(=N)N)NC(=O)[C@H](CO)NC1=O)C(=O)N[C@@H](CC(C)C)C(=O)N[C@@H](CCC(=O)O)C(=O)N1CCC[C@H]1C(=O)N3)NC(=O)[C@H](CCCCN)NC(=O)CNC(=O)[C@H](CC(N)=O)NC(=O)[C@H](CCSC)NC2=O [K19R] (H-GVIINVKCKISRQCLEPCRKAGMRFGKCMNGKCHCTPK-OH; disulfide 8-28, 14-33, 18-35)
IC50 [1]: 12.6 pM
IC50 [2]: 2.41 pM

CC[C@H](C)[C@@H]1NC(=O)[C@H](CCCCN)NC(=O)[C@@H](NC(=O)[C@H](CCCCN)NC(=O)[C@@H](NC(=O)[C@H](CC(N)=O)NC(=O)[C@@H](NC(=O)[C@@H](NC(=O)[C@@H](NC(=O)CN)C(C)C)[C@@H](C)CC)[C@@H](C)CC)C(C)C)CSSC[C@@H]2NC(=O)[C@H](CCCCN)NC(=O)CNC(=O)[C@H](Cc3ccccc3)NC(=O)[C@H](CCCNC(=N)N)NC(=O)[C@H](CCSC)NC(=O)CNC(=O)[C@H](C)NC(=O)[C@H](C)NC(=O)[C@H](CCCCN)NC(=O)[C@@H]3CSSC[C@@H](C(=O)N[C@H](C(=O)N4CCC[C@H]4C(=O)N[C@@H](CCCCN)C(=O)O)[C@@H](C)O)NC(=O)[C@H](Cc4c[nH]cn4)NC(=O)[C@H](CSSC[C@H](NC(=O)[C@H](CCC(N)=O)NC(=O)[C@H](CCCNC(=N)N)NC(=O)[C@H](CO)NC1=O)C(=O)N[C@@H](CC(C)C)C(=O)N[C@@H](CCC(=O)O)C(=O)N1CCC[C@H]1C(=O)N3)NC(=O)[C@H](CCCCN)NC(=O)CNC(=O)[C@H](CC(N)=O)NC(=O)[C@H](CCSC)NC2=O [K20A] (H-GVIINVKCKISRQCLEPCKAAGMRFGKCMNGKCHCTPK-OH; disulfide 8-28, 14-33, 18-35)
IC50 [1]: 1040 pM
IC50 [2]: 185 pM

CC[C@H](C)[C@@H]1NC(=O)[C@H](CCCCN)NC(=O)[C@@H](NC(=O)[C@H](CCCCN)NC(=O)[C@@H](NC(=O)[C@H](CC(N)=O)NC(=O)[C@@H](NC(=O)[C@@H](NC(=O)[C@@H](NC(=O)CN)C(C)C)[C@@H](C)CC)[C@@H](C)CC)C(C)C)CSSC[C@@H]2NC(=O)[C@H](CCCCN)NC(=O)CNC(=O)[C@H](Cc3ccccc3)NC(=O)[C@H](CCCNC(=N)N)NC(=O)[C@H](CCSC)NC(=O)CNC(=O)[C@H](C)NC(=O)[C@H](CCC(=O)O)NC(=O)[C@H](CCCCN)NC(=O)[C@@H]3CSSC[C@@H](C(=O)N[C@H](C(=O)N4CCC[C@H]4C(=O)N[C@@H](CCCCN)C(=O)O)[C@@H](C)O)NC(=O)[C@H](Cc4c[nH]cn4)NC(=O)[C@H](CSSC[C@H](NC(=O)[C@H](CCC(N)=O)NC(=O)[C@H](CCCNC(=N)N)NC(=O)[C@H](CO)NC1=O)C(=O)N[C@@H](CC(C)C)C(=O)N[C@@H](CCC(=O)O)C(=O)N1CCC[C@H]1C(=O)N3)NC(=O)[C@H](CCCCN)NC(=O)CNC(=O)[C@H](CC(N)=O)NC(=O)[C@H](CCSC)NC2=O [K20E] (H-GVIINVKCKISRQCLEPCKEAGMRFGKCMNGKCHCTPK-OH; disulfide 8-28, 14-33, 18-35)
IC50 [1]: 25.4 pM
IC50 [2]: 5.76 pM

CC[C@H](C)[C@@H]1NC(=O)[C@H](CCCCN)NC(=O)[C@@H](NC(=O)[C@H](CCCCN)NC(=O)[C@@H](NC(=O)[C@H](CC(N)=O)NC(=O)[C@@H](NC(=O)[C@@H](NC(=O)[C@@H](NC(=O)CN)C(C)C)[C@@H](C)CC)[C@@H](C)CC)C(C)C)CSSC[C@@H]2NC(=O)[C@H](CCCCN)NC(=O)CNC(=O)[C@H](Cc3ccccc3)NC(=O)[C@H](CCCNC(=N)N)NC(=O)[C@H](CCSC)NC(=O)CNC(=O)[C@H](C)NC(=O)[C@H](CCCNC(=N)N)NC(=O)[C@H](CCCCN)NC(=O)[C@@H]3CSSC[C@@H](C(=O)N[C@H](C(=O)N4CCC[C@H]4C(=O)N[C@@H](CCCCN)C(=O)O)[C@@H](C)O)NC(=O)[C@H](Cc4c[nH]cn4)NC(=O)[C@H](CSSC[C@H](NC(=O)[C@H](CCC(N)=O)NC(=O)[C@H](CCCNC(=N)N)NC(=O)[C@H](CO)NC1=O)C(=O)N[C@@H](CC(C)C)C(=O)N[C@@H](CCC(=O)O)C(=O)N1CCC[C@H]1C(=O)N3)NC(=O)[C@H](CCCCN)NC(=O)CNC(=O)[C@H](CC(N)=O)NC(=O)[C@H](CCSC)NC2=O [K20R] (H-GVIINVKCKISRQCLEPCKRAGMRFGKCMNGKCHCTPK-OH; disulfide 8-28, 14-33, 18-35)
IC50 [1]: 9.85 pM
IC50 [2]: < 1.52 pM
